Patent US20090215782A1, “Use of PDE-5 Inhibitors for Endothelial Repair of Tissues Impaired by Trauma or Disease” (priority 2005, published 2009)

What was measured:
[1] = system: haematological and bone marrow tissues; details: chronic administration; cited from earlier work
[2] = system: circulating endothelial progenitor cells (EPCs); test: Concentration of circulating EPCs (CD34/AC133 double positive) in peripheral blood by flow cytometry after oral Vardenafil 20 mg, placebo crossover; assay type: in vivo, human; details: healthy men, mean±SD
Method: 10 healthy men without cardiovascular risk factors were selected for the study. The ages of the 10 men ranged from 21 to 25 years. Blood samples taken for the purposes of the study were evaluated by flow cytometry, as previously described (Scheubel R. J., Zorn H., Silber R. E., Kuss O., Morawietz H., Holtz J., Simm A. Age-dependent depression in circulating endothelial cell progenitor cells in patients undergoing coronary artery bypass grafting. J Am Coll Cardiol. 42, 2073-2080,2003).
Control samples from each subject were examined to validate the study. The samples were obtained in triplicate, on different days and at different hours of the day and examined. No significant variability was found among the subjects.
Subjects were randomly allocated to two groups of five subjects. The first group received Vardenafil 20 mg on the first visit and a placebo one week later. The second group received the placebo on the first visit and Vardenafil 20 mg one week later. […]
Analysis was performed on a sample of 150 μl of peripheral blood extracted from each subject. […] After incubation, the cells were lysed in NH4Cl lysis buffer, washed twice with PBS 1% FCS and then analysed by flow cytometry.
With reference to FIG. 1, forward and side scatter gates were set to include all viable mononuclear cells; into this gate 500,000 events were acquired. […] Cells were scored using a FACSCalibur analyzer (Becton Dickinson Immunocytometry Systems, San Jose, Calif., USA) and data processing using the CellQuest software programmes (Becton Dickinson Immunocytometry Systems).
The percentage of EPCs, in each subject, was calculated by dividing the number of double positive events by the number of total events. The total number of EPCs per volume, of each subject, per volume was calculated by multiplying the percentage of EPCs with the leukocyte count. The data is expressed as mean±SD. Comparisons of the total number of EPCs at baseline, and at two and four hours after the administration of either Vardenafil 20 mg or the placebo were analyzed by the Student's t-test for matched data. […]

| SMILES | bone marrow density (indicated by a decrease in adipose tissue percentage) [1] | lymphomonocytic component count [1] | mean increase in EPCs after Vardenafil administration ([2]; four hours after Vardenafil 20 mg vs baseline) [EPCs/Ml] | percentage increase of circulating EPCs with respect to baseline ([2]; four hours after Vardenafil 20 mg) [%] | concentration of EPCs ([2]; four hours after administration of Vardenafil 20 mg, baseline 1849.7±384.3, p<0.001) [EPC/mL] |
| --- | --- | --- | --- | --- | --- |
| CCCOc1ccc(S(=O)(=O)NCCC2CCCN2C)cc1-c1nc2c(CCC)nn(C)c2c(=O)[nH]1 (centres unmarked) [DA-8159] | increase | increase | – | – | – |
| CCCc1nc(C)c2c(=O)[nH]c(-c3cc(S(=O)(=O)N4CCN(CC)CC4)ccc3OCC)nn12 [Vardenafil] | – | – | 795.7±176.7 | 44.1±16.5 | 2645.4±509.5 |
